Experiment [1] addresses T1, VIP peptides (Homo sapiens, UniProt P01282).
T1 sequence (P01282 whole entry): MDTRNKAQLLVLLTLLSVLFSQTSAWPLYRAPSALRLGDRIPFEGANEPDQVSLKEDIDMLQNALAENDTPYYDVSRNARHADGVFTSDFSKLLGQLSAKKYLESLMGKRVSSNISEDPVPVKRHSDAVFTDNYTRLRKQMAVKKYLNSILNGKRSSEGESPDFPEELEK

The target in experiment [2] is T2, VIP peptides (Cavia porcellus, UniProt P04566).
T2 sequence (P04566 whole entry): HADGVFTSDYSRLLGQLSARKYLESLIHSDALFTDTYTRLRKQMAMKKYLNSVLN

Experiment [3] has as its target T3, VIP peptides (Rattus norvegicus, UniProt P01283).
T3 sequence (P01283 whole entry): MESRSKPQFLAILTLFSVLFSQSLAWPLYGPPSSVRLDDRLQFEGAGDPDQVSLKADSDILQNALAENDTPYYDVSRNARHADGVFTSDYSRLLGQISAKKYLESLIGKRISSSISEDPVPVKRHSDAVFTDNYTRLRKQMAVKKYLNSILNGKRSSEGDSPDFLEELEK

Several values for one entry are separate records, joined by “and”; a condition that tells them apart may be missing. Equal values may be shown once.

`CC[C@H](C)[C@H](NC(=O)[C@H](CO)NC(=O)[C@H](CC(N)=O)NC(=O)[C@H](CC(C)C)NC(=O)[C@H](Cc1ccc(O)cc1)NC(=O)[C@H](CCCCN)NC(=O)[C@H](CCCCN)NC(=O)[C@@H](NC(=O)[C@H](C)NC(=O)[C@H](CCSC)NC(=O)[C@H](CCC(N)=O)NC(=O)[C@H](CCCCN)NC(=O)[C@H](CCCN=C(N)N)NC(=O)[C@H](CC(C)C)NC(=O)[C@H](CCCN=C(N)N)NC(=O)[C@@H](NC(=O)[C@H](Cc1ccc(O)cc1)NC(=O)[C@H](CC(N)=O)NC(=O)[C@H](CC(=O)O)NC(=O)[C@H](NC(=O)[C@H](Cc1ccccc1)NC(=O)[C@@H](NC(=O)[C@H](C)NC(=O)[C@H](CC(=O)O)NC(=O)[C@H](CO)NC(=O)[C@@H](N)Cc1cnc[nH]1)C(C)C)[C@H](C)O)[C@@H](C)O)C(C)C)C(=O)N[C@@H](CC(C)C)C(=O)N[C@@H](CC(N)=O)C(N)=O` [VIP [D-Thr7]]: the inhibition constant Ki (commonly a measure of affinity in units of concentration, obtained from inhibition or displacement) is 162 nM and 288 nM and 214 nM on VIP peptides [1]; 200 nM on VIP peptides [2]; 87.1 nM and 324 nM and 437 nM on VIP peptides [3].
In the case of `CC[C@H](C)[C@H](NC(=O)[C@H](CO)NC(=O)[C@H](CC(N)=O)NC(=O)[C@H](CC(C)C)NC(=O)[C@@H](Cc1ccc(O)cc1)NC(=O)[C@H](CCCCN)NC(=O)[C@H](CCCCN)NC(=O)[C@@H](NC(=O)[C@H](C)NC(=O)[C@H](CCSC)NC(=O)[C@H](CCC(N)=O)NC(=O)[C@H](CCCCN)NC(=O)[C@H](CCCN=C(N)N)NC(=O)[C@H](CC(C)C)NC(=O)[C@H](CCCN=C(N)N)NC(=O)[C@@H](NC(=O)[C@H](Cc1ccc(O)cc1)NC(=O)[C@H](CC(N)=O)NC(=O)[C@H](CC(=O)O)NC(=O)[C@@H](NC(=O)[C@H](Cc1ccccc1)NC(=O)[C@@H](NC(=O)[C@H](C)NC(=O)[C@H](CC(=O)O)NC(=O)[C@H](CO)NC(=O)[C@@H](N)Cc1cnc[nH]1)C(C)C)[C@@H](C)O)[C@@H](C)O)C(C)C)C(=O)N[C@@H](CC(C)C)C(=O)N[C@@H](CC(N)=O)C(N)=O` [VIP [D-Tyr22]], the Ki was 128 nM and 95.5 nM and 112 nM at VIP peptides [1]; 29.5 nM on VIP peptides [2]; 11.8 nM and 28.2 nM and 38.9 nM at VIP peptides [3].
With `CC[C@H](C)[C@H](NC(=O)[C@H](CO)NC(=O)[C@H](CC(N)=O)NC(=O)[C@H](CC(C)C)NC(=O)[C@H](Cc1ccc(O)cc1)NC(=O)[C@H](CCCCN)NC(=O)[C@H](CCCCN)NC(=O)[C@H](NC(=O)[C@H](C)NC(=O)[C@H](CCSC)NC(=O)[C@H](CCC(N)=O)NC(=O)[C@H](CCCCN)NC(=O)[C@H](CCCN=C(N)N)NC(=O)[C@H](CC(C)C)NC(=O)[C@H](CCCN=C(N)N)NC(=O)[C@@H](NC(=O)[C@H](Cc1ccc(O)cc1)NC(=O)[C@H](CC(N)=O)NC(=O)[C@H](CC(=O)O)NC(=O)[C@@H](NC(=O)[C@H](Cc1ccccc1)NC(=O)[C@@H](NC(=O)[C@H](C)NC(=O)[C@H](CC(=O)O)NC(=O)[C@H](CO)NC(=O)[C@@H](N)Cc1cnc[nH]1)C(C)C)[C@@H](C)O)[C@@H](C)O)C(C)C)C(=O)N[C@@H](CC(C)C)C(=O)N[C@@H](CC(N)=O)C(N)=O` [VIP [D-Val19]], the Ki was 10.9 nM and 69.2 nM and 58.9 nM at VIP peptides [1]; 34.6 nM at VIP peptides [2]; 6.3 nM and 29.5 nM and 25.1 nM at VIP peptides [3].
As for “H-HSAAVFTDNYTRLRKQMAVKKYLNSILN-NH2 [VIP Ala3]”, the Ki on VIP peptides [1] is 74.1 nM and 182 nM and 123 nM; on VIP peptides [2], 427 nM; on VIP peptides [3], 43.7 nM and 245 nM and 148 nM.
With “H-HSDAVATDNYTRLRKQMAVKKYLNSILN-NH2 [VIP Ala16]”, the Ki on VIP peptides [1] is 724 nM and 1150 nM and 794 nM; on VIP peptides [2], 2750 nM; at VIP peptides [3], 661 nM and 1860 nM and 2340 nM.
Take “H-HSDAVFTDAYTRLRKQMAVKKYLNSILN-NH2 [VIP Ala9]”: the Ki is 0.29 nM and 1.8 nM and 1.4 nM at VIP peptides [1]; 1.6 nM at VIP peptides [2]; 0.16 nM and 1.3 nM and 0.49 nM on VIP peptides [3].
As to “H-HSDAVFTDNYTALRKQMAVKKYLNSILN-NH2 [VIP Ala12]”, the Ki at VIP peptides [1] was 53.7 nM and 61.7 nM and 50.1 nM; at VIP peptides [2], 56.1 nM; at VIP peptides [3] it was 12.3 nM and 34.7 nM and 30 nM.
Take “H-HSDAVFTDNYTRARKQMAVKKYLNSILN-NH2 [VIP Ala13]”: the Ki on VIP peptides [1] is 6.6 nM and 7.2 nM and 3.4 nM; on VIP peptides [2], 9.5 nM; on VIP peptides [3], 1.9 nM and 9.3 nM and 10 nM.
As for “H-HSDAVFTDNYTRLAKQMAVKKYLNSILN-NH2 [VIP Ala14]”, the Ki is 24.6 nM and 174 nM and 111 nM on VIP peptides [1]; 61.6 nM at VIP peptides [2]; 30 nM and 45.7 nM and 51.3 nM at VIP peptides [3].
With “H-HSDAVFTDNYTRLRKQAAVKKYLNSILN-NH2 [VIP Ala17]”, the Ki on VIP peptides [1] was 0.74 nM and 4.5 nM and 3.9 nM; at VIP peptides [2], 4 nM; on VIP peptides [3], 1.6 nM and 5 nM and 3.6 nM.
In the case of “H-HSDAVFTDNYTRLRKQMAAKKYLNSILN-NH2 [VIP Ala19]”, the Ki at VIP peptides [1] is 0.59 nM and 4.1 nM and 2.1 nM; at VIP peptides [2], 3.2 nM; on VIP peptides [3], 0.85 nM and 2.8 nM and 2.2 nM.
“H-HSDAVFTDNYTRLRKQMAVKAYLNSILN-NH2 [VIP Ala21]”: the inhibitory constant (Ki) is 0.87 nM and 5 nM and 5.1 nM at VIP peptides [1]; 3.2 nM at VIP peptides [2]; 0.38 nM and 2.1 nM and 0.51 nM on VIP peptides [3].
As for “H-HSDAVFTDNYTRLRKQMAVKKALNSILN-NH2 [VIP Ala22]”, the Ki is 3.8 nM and 7.6 nM and 7.1 nM on VIP peptides [1]; 8.5 nM on VIP peptides [2]; 1.1 nM and 3.2 nM and 2.8 nM at VIP peptides [3].
For the molecule “H-HSDAVFTDNYTRLRKQMAVKKYANSILN-NH2 [VIP Ala23]”, the Ki at VIP peptides [1] was 26.9 nM and 170 nM and 155 nM; on VIP peptides [2], 182 nM; at VIP peptides [3], 33.9 nM and 213 nM and 204 nM.
As for “H-HSDAVFTDNYTRLRKQMAVKKYLNSIAN-NH2 [VIP Ala27]”, the Ki on VIP peptides [1] is 0.37 nM and 2.3 nM and 2.5 nM; on VIP peptides [2], 2.4 nM; at VIP peptides [3], 0.59 nM and 4.7 nM and 2 nM.

Source of the values: BindingDB's records for doi:10.1124/jpet.301.1.37 (National Institutes of Health, 2002).
